The values below come from publication PMC5876303, “Discovery of C-3 Tethered 2-oxo-benzo[1,4]oxazines as Potent Antioxidants: Bio-Inspired Based Design, Synthesis, Biological Evaluation, Cytotoxic, and in Silico Molecular Docking Studies” (Frontiers in Chemistry, 2018).

For series [1] the following is noted: Figure 1, cited from earlier work.
Series [2] can be described thus: DPPH radical scavenging antioxidant assay. Format: biochemical. To be noted: Table 1; mean ± SD, n = 3; 517 nm after 20 min. The protocol:
In DPPH radical scavenging method the plant extract (0.75 mL) at different concentrations ranging from 10 to 100 μg mL^−1 was mixed with 1.5 mL of a DPPH methanolic solution (20 mg L^−1). Pure methanol was taken as control and ascorbic acid (vitamin C), vitamins A and E were used as a reference compounds. The absorbance was measured at 517 nm after 20 min of reaction. The % of DPPH decolouration of the sample was calculated according to the formula (Sharma and Bhat, [2009]).
Decolouration % = [1−(Abs SAMPLE/Abs CONTROL)]×100
The decolouration was plotted against the sample extract concentration and a logarithmic regression curve was established in order to calculate the IC50. The results are expressed as antiradical efficiency (AE), which is 1000-fold inverse of the IC50 value AE=1000/ IC50.

Series [3] is described as follows: Ferric reducing antioxidant power (FRAP) assay. Type of series: biochemical. Particulars: for FRAP assay (C0.5FRAP): mean ± SD, n = 3, concentration equivalent to FeSO4 at 0.5 mmol/L, 37°C, 30 min, 593 nm; for FRAP potency compared with standard reference BHT: in words, BHT C0.5FRAP = 546.0 ± 13.6 μM. The protocol: The FRAP reagent was prepared by the addition of freshly prepared 20.0 mM FeCl3.6H2O solution, 10.0 mM of […] (TPTZ) solution and 300 mM sodium acetate buffer (pH 3.6) in a ratio of 1:1:10 (v/v/v). After that, Sample (our synthesized 2-oxo-2-phenylethylidenes-linked 2-oxo-benzo[1,4]oxazines 20a-ab) was added to 3 ml of freshly prepared FRAP reagent and this reaction mixture was incubated at 37°C temperature for 30 min. and the absorbance was measured at 593 nm. It is also noted that, a freshly prepared solution of FeSO4 was used for calibration of standard curve. The FRAP antioxidant capability were evaluated in terms of C0.5FRAP (the antioxidant capability of samples related to their concentration, which is equivalent to that of FeSO4 at 0.5 mmol/L) (Benzie and Strain, [1996]).
The FRAP assay was deliberated using the method as illustrated by Benzie and Strain (Benzie and Strain, [1996]). […] The reducing nature of an antioxidant depends on their property to donate a hydrogen atom for the breaking of the free radical chain, which is responsible for oxidative stress etc.

Series [4] relates to 3T3 fibroblast cell lines. The series is described as follows: in vitro. To be noted: mouse, 72 h, 250 μg/ml. Format: cell-based. The protocol:
(§1) Cell toxicity of active C-3 tethered 2-oxo-benzo[1,4]oxazine analogs were accessed using 3T3 fibroblast cell lines in MTT assay via the reported protocol of Danihelová et al. ([2013]) [For details, see supporting information].
(§2) The cytotoxic effect of the active compounds prepared on cells was detected in vitro using the mitochondrial cytotoxic test according to Danihelová et al. (2013) with modifications. Cell viability was evaluated using thiazolyl blue tetrazolium bromide (MTT), which indicates the metabolic activity of cells. The experiment was performed in 96-well microplates. The cells were seeded at a density of 3.5×10^3 3T3 fibroblast cells per well. Samples were dissolved in DMSO (stock solution 10 […]
(§3) (concentration of DMSO 0.5%) and after 24 h they were added to the cells. Microplates were cultivated for 72 h in thermostat at 37 °C and 5% CO 2 atmosphere. After incubation thiazolyl blue tetrazolium bromide (3.33 mg/ml phosphate buffered saline, pH=7.4) was pipetted to each well and left to incubate for further two hours. Then the medium with MTT solution was removed. Formazan crystals in viable cells were dissolved in the lysis solution (4 mM HCl and 0.1% Nonidet P40 in ethanol). Microplates were shaken 15 min at 1500 rpm. Absorbance was measured at 540 nm and reference wavelength at 740 nm. Each value is the mean of 6 wells with standard deviation.
(§4) Inhibition activity was expressed as percentages of control with DMSO.

The next series can be described thus: in vitro. Type of series: cell-based. Particulars: mouse, Cell viability (%). As to the method: as §1, §2, §3, §4
The mark [5] stands for this setting: ref Niemeyer, 2009, Adhikari et al., 2013, Glenska et al., 2015.

SMILES strings stand for the structures. Converted amounts (≈) assume the structure as drawn. “Also recorded” adds a separate entry of the source. Like-named read-outs stand apart in the source and are kept apart here.

With `COc1ccc2c(c1)OC(O)C(=O)N2O` (centres unmarked) [Compound 1, DIMBOA], in series [1] (setting [5]), the “% DPPH-scavenging activity” value is reported as 98.57% and the “IC50 (antioxidant activity)” value was 11.31 µg/mL (≈ 53.6 µM).

As to `O=c1[nH]c2ccccc2c(=O)o1` [Compound 4, 2H-benzo[d][1,3]oxazine-2,4(1H)-dione], the “% DPPH-scavenging activity” value in series [1] (ref Sáncheza et al., 2014) was 17.2 ± 4.15%.

Consider `O=C1Nc2ccccc2OC1O` (centres unmarked) [Compound 5, 2-Hydroxy-1,4-benzoxazin-3(4H)-one], for which, in series [1] (ref Harput et al., 2011), the “IC50 (antioxidant activity)” value was 39.29 µg/mL (≈ 238 µM).

In general, viability refers to a per cent measure of how many cells are alive, often set against a control. Read a low viability as a greater loss of cells. What is called melting point is the temperature, or range, at which the solid turns liquid. On to `O=C1Oc2cc([N+](=O)[O-])ccc2N/C1=C\C(=O)c1ccc(F)cc1` [Compound 20x, (Z)-3-(2-(4-fluorophenyl)-2-oxoethylidene)-7-nitro-3,4-dihydro-2H-benzo[b][1,4]oxazin-2-one], for which the melting point is 235 to 237 °C. The compound further registered a DPPH assay IC50 in series [2] of 10.18 ± 0.1 µg/mL. In addition, in series [3], the “FRAP assay (C0.5FRAP)” value was 628.6 ± 32.4 µM. For the same compound, in series [4], the “Cell viability (%)” value worked out at 73.91%. In the series “in vitro”, this compound came in with a viability at 72 h, 25 μg/ml of 95.5%; a viability at 72 h, 50 μg/ml of 86.7%; a viability at 72 h, 100 μg/ml of 81.1%; a viability at 72 h, 250 μg/ml of more than 65%.

Take `O=C1Oc2ccc([N+](=O)[O-])cc2N/C1=C\C(=O)c1ccccc1` [Compound 20t, (Z)-6-nitro-3-(2-oxo-2-phenylethylidene)-3,4-dihydro-2H-benzo[b][1,4]oxazin-2-one]: the melting point lay within 198 to 200 °C. Further, in series [2], the DPPH assay IC50 amounted to 4.74 ± 0.08 µg/mL. In series [3], the “FRAP potency compared with standard reference BHT” value is recorded as “less active than BHT” and the “FRAP assay (C0.5FRAP)” value turned out to be 638.2 ± 32.6 µM. For the same compound, the “Cell viability (%)” value in series [4] was determined as 67.46%. In “in vitro”, the viability at 72 h, 25 μg/ml came to 89.7%; the viability at 72 h, 50 μg/ml was found to be 80.5%; the viability at 72 h, 100 μg/ml turned out to be 74.9%; the viability at 72 h, 250 μg/ml is more than 65%.

`COc1ccc(C(=O)/C=C2\Nc3ccccc3OC2=O)cc1` [Compound 20b, (Z)-3-[2-(4-methoxy-phenyl)-2-oxo-ethylidene]-3,4-dihydro-benzo [1, 4] oxazin-2-one] came in with a melting point of 200 to 203 °C. In series [2], the DPPH assay IC50 is 6.89 ± 0.07 µg/mL. The “FRAP assay (C0.5FRAP)” value in series [3] is 686.4 ± 30.8 µM. Further, the “Cell viability (%)” value in series [4] is recorded as 75.58%. In the series “in vitro”, this compound gave a viability at 72 h, 25 μg/ml of 92.1%; a viability at 72 h, 50 μg/ml of 88.4%; a viability at 72 h, 100 μg/ml of 80.7%; a viability at 72 h, 250 μg/ml of more than 65%.

Take `O=C1Oc2cc([N+](=O)[O-])ccc2N/C1=C\C(=O)c1ccc(Cl)cc1Cl` [Compound 20z, (Z)-3-(2-(2,4-dichlorophenyl)-2-oxoethylidene)-7-nitro-3,4-dihydro-2H-benzo[b][1,4]oxazin-2-one]: the melting point was in the range of 208 to 210 °C. This compound returned a DPPH assay IC50 in series [2] of 28.8 ± 0.67 µg/mL. In series [3], the “FRAP potency compared with standard reference BHT” value is reported as “more potent than standard reference BHT” and the “FRAP assay (C0.5FRAP)” value was 437.6 ± 39.4 µM.

`O=C1Oc2ccc(Cl)cc2N/C1=C\C(=O)c1ccc(Br)cc1` [Compound 20g, (Z)-3-(2-(4-bromophenyl)-2-oxoethylidene)-6-chloro-3,4-dihydro-2H-benzo[b][1,4]oxazin-2-one] showed a melting point of 175 to 177 °C. Moreover, the DPPH assay IC50 in series [2] stood at 61.2 ± 1.23 µg/mL. Further, in series [3], the “FRAP assay (C0.5FRAP)” value turned out to be 798.6 ± 32.5 µM.

`O=C1Oc2ccccc2N/C1=C\C(=O)c1ccc([N+](=O)[O-])cc1` [Compound 20s, (Z)-3-(2-(4-nitrophenyl)-2-oxoethylidene)-3,4-dihydro-2H-benzo[b][1,4]oxazin-2-one] showed a melting point of 207 to 209 °C. The DPPH assay IC50 in series [2] stood at 21.3 ± 0.28 µg/mL. Moreover, in series [3], the “FRAP potency compared with standard reference BHT” value is on record as “less active” and the “FRAP assay (C0.5FRAP)” value amounted to 618.4 ± 23.9 µM.

Take `O=C1Oc2ccc(Cl)cc2N/C1=C\C(=O)c1ccccc1` [Compound 20c, (Z)-6-chloro-3-(2-oxo-2-phenylethylidene)-3,4-dihydro-2H-benzo[b][1,4]oxazin-2-one]: the melting point lay in the range of 185 to 187 °C. The DPPH assay IC50 in series [2] is 28.8 ± 0.6 µg/mL. In series [3], the “FRAP potency compared with standard reference BHT” value is “greater potency; also recorded: more potent than standard reference BHT” and the “FRAP assay (C0.5FRAP)” value was 467.8 ± 22.4 µM.
